This note sets out measurements from patent US12145923B2, “Tetrahydroisoquinoline compound, preparation method therefor, pharmaceutical composition containing same, and use thereof” (SHANGHAI INSTITUTE OF MATERIA MEDICA, CHINESE ACADEMY OF …, priority 2018, dated 2024).

One data set concerns RAW 264.7 cells. The data set is described as follows: Cytotoxicity on RAW 264.7 cells (CCK-8 method). In kind it is cell-based, mouse.
Data set [1] in a line: Cytotoxicity on RAW 264.7 cells (CCK-8 method). It counts as cell-based, mouse. The settings on record: mouse, RAW 264.7 cells; drug concentration required to cause median cytotoxicity, RAW 264.7.
Protocol: Mouse RAW 264.7 cells were purchased from American Type Culture Collection (Manassas, VA, USA), and cultivated in DMEM culture medium (Hyclone, South Logan, UT, USA) containing 10% fetal bovine serum (Hyclone, South Logan, UT, USA). Cells were collected and counted before use, and inoculated in a 96-well plate (Corning, NY, USA) at 1×10^5/well. […] 20 μl of CCK-8 solution (Dojindo, Kumamoto, Japan) was added at 30 min before the end of the culture. After the cultivation was ended, the absorbance OD value was measured at 450 nm (reference 650 nm) on amicroplate reader (Molecular Devices, Sunnyvale, CA, USA). The toxicity of the compound on RAW 264.7 cells was calculated by dividing the OD value of the test sample by the OD value of the cell control well, which was labeled as the cell survival rate M %.
For data set [2], the system named is acute inflammation model of mouse back air sac. The data set is described as follows: Acute inflammation model of mouse back air sac (carrageenan). The settings on record: oral gavage 5 mg/kg. It counts as in vivo.
Protocol: On the first day of the experiment, mice were subcutaneously injected with 3 ml of air on the back, and subcutaneously injected with 1.5 ml of air on the back on day 3, and subcutaneously injected with 1 ml of 2% carrageenan (Sigma-Aldrich, St. Louis, MO, USA) on the back on day 6 for sensitization. 4 hours after sensitization, secretion in the air sac was lavaged with phosphate buffer solution. The lavage fluid was used for white blood cell count and inflammatory factor detection. […] Tumor necrosis factor-α and interleukin-6 detection kits were purchased from BD Pharmingen (San Diego, CA, USA).
Another data set is described as follows: Rat pharmacokinetic test. It counts as in vivo. As to the method:
Six male healthy rats weighing 150-200 g were randomly divided into 2 groups (n=3). Compounds 14, 16, 17, 18, 22 and 29 of the present invention were administered by gavage and intravenous injection, respectively, at a administration volume of 10 mL/kg. The drug was formulated with DMSO/Tween 80/saline solution (5:5:90, v/v/v). The rats were fasted for 12 h before testing, water ad lib, and uniformly feeded 2 h after administration.
gavage administration: 0.25, 0.5, 1.0, 2.0, 4.0, 6.0, 8.0 and 24 h after administration:
intravenous administration: 5 min, 0.25, 0.5, 1.0, 2.0, 4.0, 6.0, 8.0 and 24 h after administration;
0.3 mL of venous blood was collected at the above time points via the rat eye vein venous plexus, placed in heparinized test tube, centrifuged at 11000 rpm for 5 min. Plasma was separated and frozed in a −20° C. refrigerator.
The concentration of compounds in rat plasma was determined by LC/MS/MS. The pharmacokinetic parameters after administration were calculated by a non-compartmental model of DAS 3.0 software.

The subject of data set [3] is tumor necrosis factor-α secretion in RAW 264.7 cells. The data set is described as follows: Inhibition of LPS-stimulated tumor necrosis factor-α secretion in RAW 264.7 cells (ELISA). It counts as cell-based, mouse. The settings on record: Mus musculus; for inhibition at 0.5 µM / inhibition at 5 µM / inhibition at 50 µM: RAW264.7, 4 h, read-out: Tumor necrosis factor-α inhibition rate/%. In general terms: ELISA stands for enzyme-linked immunosorbent assay.
Protocol: After the activation by bacterial lipopolysaccharide (LPS), various inflammatory mediators such as tumor necrosis factor-α will be released; Phosphodiesterase PDE4 is also expressed in macrophages, and the inhibitory activity of the compound on phosphodiesterase PDE4 can be reflected by detecting the secretion of tumor necrosis factor-α.
Under the stimulation of 1 μg/ml LPS (L5886, Sigma, St. Louis, MO, USA), the cells were cultured in a 37° C., 5% CO2 incubator for 4 h. The background control with no stimulant and stimulation control wells were also set, with a total volume of 200 μl. The culture supernatant was collected by centrifugation, and the secretion level of tumor necrosis factor-α in the culture supernatant was detected by enzyme-linked immunosorbent assay. The tumor necrosis factor-α detection kit was purchased from BD Pharmingen (San Diego, CA, USA).

The subject of another data set is TNF-α secretion in PBMC. The data set is described as follows: Inhibition of LPS-stimulated TNF-α secretion in PBMC (ELISA). In kind it is cell-based. Particulars: Homo sapiens, read-out: Inhibition rate %.
In data set [4] the target is Human PDE4D catalytic domain (Homo sapiens (Human), UniProt Q08499). The data set is described as follows: Scintillation Proximity Assay (SPA), inhibition of PDE4D catalytic domain activity. Particulars: for inhibition at 1 µM: read-out: PDE4D enzyme activity inhibition rate %. In kind it is biochemical.
Sequence of Human PDE4D catalytic domain (Q08499 386-715): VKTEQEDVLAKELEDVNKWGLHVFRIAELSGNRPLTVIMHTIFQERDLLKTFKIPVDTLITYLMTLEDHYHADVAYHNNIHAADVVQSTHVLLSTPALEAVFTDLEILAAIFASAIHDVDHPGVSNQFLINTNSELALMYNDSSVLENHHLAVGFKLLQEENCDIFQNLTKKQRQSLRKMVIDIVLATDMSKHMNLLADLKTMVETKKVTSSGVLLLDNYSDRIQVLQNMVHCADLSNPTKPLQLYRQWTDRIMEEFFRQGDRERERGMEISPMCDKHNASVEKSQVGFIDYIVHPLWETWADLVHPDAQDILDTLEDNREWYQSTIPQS
The mark [5] stands for this setting: male, plasma, intravenous injection, 10 mg/kg.
Setting [6] is: male, plasma, po, gavage, 20 mg/kg.

Each structure is given as a SMILES string. Several values for one entry are separate records, joined by “and”; a condition that tells them apart may be missing. Equal entries are not always repeated. Where two headings read alike, the source gives them in different places.

Description for TNF-α secretion in PBMC: According to the difference in cell density in human blood, PBMC (peripheral blood mononuclear cell, PBMC) was directly separated and purified by gradient centrifugation using lymphocyte separation fluid. The cell type was mononuclear cells in blood, mainly including lymphocytes (T/B), monocytes, macrophages, dendritic cells and other minor cell types, of which lymphocytes account for a large part, which can directly in vitro simulate the blood immune environment.
PBMC cells isolated from human blood were implanted into 96-well plates at 2*10^5/ml; compounds in gradients were added, with at least three replicates for each gradient; After the PBMCs were incubated at 37° C., 5% CO2 for 1 hour, LPS was added (the final concentration was 10 ug/ml) to stimulate PBMC to express TNF-α, and incubated for another 18-20 h at 37° C., 5% C02. The 96-well plate was collected. The background control with no stimulant and stimulation control wells were also set, with a total volume of 200 μl. The culture supernatant was collected by centrifugation, and the expression level of TNF-α in the culture supernatant was detected by ELISA.

In general, CC50 refers to the concentration giving 50% cytotoxicity. Low readings indicate greater toxicity to the cells, high ones lower toxicity to the cells. `COc1cc2c(cc1OC)[C@H](CCc1c[nH]c3ccccc13)N(C=O)CC2` [(S)-A1, (S)-1-(2-(1H-indol-3-yl)ethyl)-6,7-dimethoxy-3,4-dihydroisoquinoline-2(1H)-formaldehyde]: the Cell survival rate/% with RAW 264.7 cells (RAW 264.7, 0.5 μM) is 112.3% and 103%; in the data set with RAW 264.7 cells (RAW 264.7, 5 μM), 126.4% and 100.2%; in the data set with RAW 264.7 cells (RAW 264.7, 50 μM), 88.8% and 102%. In addition, the CC50 at 4 h in data set [1] is more than 50 µM.
In the case of `COc1cc2c(cc1OC)[C@H](CCc1c[nH]c3cc(C)ccc13)N(C=O)CC2` [(S)-C5, (S)-6,7-dimethoxy-1-(2-(6-methyl-1H-indol-3-yl)ethyl)-3,4-dihydroisoquinoline-2(1H)-formaldehyde], the “secretion level of interleukin-6 in lavage” value in data set [2] is “reduce”. Further, the “secretion level of tumor necrosis factor-α in lavage” value in data set [2] is “reduce”. Also, the inflammatory response entry in data set [2] (24 h and 1 h before sensitization) is “significantly reduce”. Also, the Cell survival rate/% with RAW 264.7 cells (RAW 264.7, 0.5 μM) amounted to 98%; in the data set with RAW 264.7 cells (RAW 264.7, 5 μM), 109.4%; in the data set on RAW 264.7 cells (RAW 264.7, 50 μM), 93.4%.
`COc1cc2c(cc1OC)[C@H](CCc1c[nH]c3cc(F)ccc13)N(C=O)CC2` [(S)-C6, (S)-1-(2-(6-fluoro-1H-indol-3-yl)ethyl)-6,7-dimethoxy-3,4-dihydroisoquinoline-2(1H)-formaldehyde]: the Cell survival rate/% in the data set on RAW 264.7 cells (RAW 264.7, 0.5 μM) was found to be 108.6%; with RAW 264.7 cells (RAW 264.7, 5 μM), 118.4%; in the data set on RAW 264.7 cells (RAW 264.7, 50 μM), 93.7%. In data set [1], this compound came in with a CC50 at 4 h of more than 50 µM.
A word on the AUC(0-inf): it is total exposure, with the tail of the curve extrapolated. Read a low AUC(0-inf) as low exposure. In general, MRT refers to the average time that molecules of a dose stay in the body. Broadly, the half-life is the time needed for the level to fall by half in the phase considered. As usually defined, the bioavailability is the share of a dose that reaches the circulation, judged against a reference dose that is usually intravenous. By Cmax is commonly meant the peak of the concentration-time curve. A word on the Tmax: it is the time from dosing to the highest level. With `CCOc1cc2c(cc1OC)CCN(C=O)[C@H]2CCc1c[nH]c2cc(C)ccc12` [(S)-C7, (S)-7-ethoxy-6-methoxy-1-(2-(6-methyl-1H-indol-3-yl)ethyl)-3,4-dihydroisoquinoline-2(1H)-formaldehyde], the AUC0-t in the data set “Rat pharmacokinetic test” (gavage, 20 mg/kg) came to 9232.3 ng·h/mL; in the data set “Rat pharmacokinetic test” (intravenous injection, 10 mg/kg) it was 6761.8 ng·h/mL; in the data set “Rat pharmacokinetic test” (male, plasma, iv, 10 mg/kg, intravenous injection, 10 mg/kg, read-out: AUC0-t), 6760 ng·h/mL; in the data set “Rat pharmacokinetic test” (male, plasma, po, 20 mg/kg, gavage, 20 mg/kg, read-out: AUC0-t), 9230 ng·h/mL. Further, the AUC(0-inf) in the data set “Rat pharmacokinetic test” (setting [5]) was determined as 6760 ng·h/mL; in the data set “Rat pharmacokinetic test” (setting [6]) it was 9230 ng·h/mL. Besides, the MRT in the data set “Rat pharmacokinetic test” (setting [5]) was determined as 0.9 h; in “Rat pharmacokinetic test” (setting [6]), 2.6 h. For the same compound, the results for the half-life in the data set “Rat pharmacokinetic test” (setting [5]) and in “Rat pharmacokinetic test” (setting [6]) were 12 min and 60 min, respectively. Besides, the Vd in the data set “Rat pharmacokinetic test” (male, plasma, intravenous injection, 10 mg/kg, read-out: Vss) came to 0.53 L/kg. Besides, in “Rat pharmacokinetic test” (male, plasma, oral, gavage 20 mg/kg vs intravenous 10 mg/kg, dosage standardized, read-out: F (absolute bioavailability)), the bioavailability came to 68.3%. Further, the Cmax in “Rat pharmacokinetic test” (male, plasma, po, 20 mg/kg, gavage) came out at 2380 ng/mL. For the same compound, the Tmax in “Rat pharmacokinetic test” (setting [6]) turned out to be 1 h. In addition, the Cell survival rate/% in the data set with RAW 264.7 cells (RAW 264.7, 0.5 μM) is recorded as 71.3%; in the data set with RAW 264.7 cells (RAW 264.7, 5 μM), 93.4%; in the data set on RAW 264.7 cells (RAW 264.7, 50 μM), 96.1%. In data set [1], this compound had a CC50 at 4 h of more than 50 µM.
The IC50 is the midpoint of a concentration-inhibition curve. A low value points to inhibition by little substance. `CCOc1cc([C@@H](CS(C)(=O)=O)N2C(=O)c3cccc(NC(C)=O)c3C2=O)ccc1OC` [Apremilast, reference compound] displayed a CC50 at 4 h in data set [1] of more than 10 µM. In data set [3] (RAW264.7, RAW 264.7), this compound showed an IC50 of 4.2 µM.
For `COc1cc2c(cc1OC1CCCC1)C(CCc1c[nH]c3ccc(Br)cc13)N(C=O)CC2` (stereo not shown) [Compound C1, 1-(2-(5-bromo-1H-indol-3-yl)ethyl)-7-(cyclopentyloxy)-6-methoxy-3,4-dihydroisoquinoline-2(1H)-formaldehyde], in the data set on TNF-α secretion in PBMC (PBMC), the inhibition at 1 µM was found to be 27.1% and the inhibition at 10 µM came out at 72.4%. In data set [4], the IC50 is 1500 nM and the inhibition at 1 µM stood at 26.4%. Further, the Cell survival rate/% in the data set on RAW 264.7 cells (RAW 264.7, 0.5 μM) is 100.9%. In the data set on RAW 264.7 cells (RAW 264.7, 5 μM), this compound showed a Cell survival rate/% of 125.1%. For the same compound, the Cell survival rate/% in the data set on RAW 264.7 cells (RAW 264.7, 50 μM) is 110.5%. In data set [3], the inhibition at 0.5 µM was determined as 2.8%, the inhibition at 5 µM is -5.2% and the inhibition at 50 µM worked out at 33.7%.
Regarding `COc1cc2c(cc1OC1CCCC1)C(CCc1c[nH]c3ccc(C)cc13)N(C=O)CC2` (stereo not shown) [Compound C2, 7-(cyclopentyloxy)-6-methoxy-1-(2-(5-methyl-1H-indol-3-yl)ethyl)-3,4-dihydroisoquinoline-2(1H)-formaldehyde], the inhibition at 1 µM was found to be 15.8% with TNF-α secretion in PBMC (TNF-α secretion in PBMC, 1 μM) and 21.5% in data set [4] (Compound concentration: 1 μM). In addition, the inhibition at 10 µM in the data set on TNF-α secretion in PBMC (TNF-α secretion in PBMC, 10 μM) was found to be 52.4%. The Cell survival rate/% in the data set with RAW 264.7 cells (RAW 264.7, 0.5 μM) is recorded as 112.4%; in the data set on RAW 264.7 cells (RAW 264.7, 5 μM), 106.3%; in the data set with RAW 264.7 cells (RAW 264.7, 50 μM), 62.7%. In data set [3] (RAW 264.7, 0.5 μM), the inhibition at 0.5 µM is -18.2%. Moreover, in data set [3] (RAW 264.7, 5 μM), the inhibition at 5 µM was -24.5%. Besides, the inhibition at 50 µM in data set [3] (RAW 264.7, 50 μM) is 97.2%.
For `COc1cc2c(cc1OC1CCCC1)C(CCc1c[nH]c3cc(C)ccc13)N(C=O)CC2` (stereo not shown) [Compound C3, 7-(cyclopentyloxy)-6-methoxy-1-(2-(6-methyl-1H-indol-3-yl)ethyl)-3,4-dihydroisoquinoline-2(1H)-formaldehyde], in the data set on TNF-α secretion in PBMC (TNF-α secretion in PBMC, 10 μM), the inhibition at 10 µM came to 36.4%. Further, the inhibition at 1 µM in data set [4] (Compound concentration: 1 μM) was found to be 6.4%. The Cell survival rate/% is listed as 115.1% with RAW 264.7 cells (RAW 264.7, 0.5 μM); 120.5% in the data set on RAW 264.7 cells (RAW 264.7, 5 μM); 112.6% in the data set with RAW 264.7 cells (RAW 264.7, 50 μM). In data set [3] (RAW 264.7, 0.5 μM), the inhibition at 0.5 µM was -0.9%. Also, the inhibition at 5 µM in data set [3] (RAW 264.7, 5 μM) stood at 5.9%. Besides, the inhibition at 50 µM in data set [3] (RAW 264.7, 50 μM) was 59.7%.
